From patent US20060116390A1, “Hepatitis c virus inhibitors” (priority 2003, published 2006) come the findings set out here.

This experiment deals with HCV proteins in Rep5.1 cells (replicon cell line). Briefly: Inhibitory activity of HCV: cell-based ELISA in replicon cell line Rep5.1 (decrease of HCV proteins). Further details: species or system hepatitis C virus. The note with it: Rep5.1 cells, 72 hours with drug. The procedure, abridged:
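Rep5.1 replicon cells (5000/well, DMEM-10 with 500 μg/ml G418) were given serially diluted drug 4 h after seeding. After 72 h, cells were fixed in methanol/acetone and HCV proteins detected by cell-based ELISA using replicon-specific patient plasma antibodies. IC50 is the concentration giving 50% protein decrease versus the no-drug control.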
(ELISA stands for enzyme-linked immunosorbent assay.)

[1] abbreviates: Hepatitis C virus, 72 h, concentration at which 50% of HCV proteins was decreased, Table 2, read-out: IC50.
[2] abbreviates: Hepatitis C virus, 72 h, decrease of HCV proteins measured by HCV antibody, Table 1, read-out: Level (IC50 values classified).
Where [3] appears, read: concentration at which 50% of HCV proteins was decreased, Table 2, read-out: IC50.

Like-named read-outs stand apart in the source and are kept apart here. A value given as a limit tells only on which side of the number the result lay.

One may read the IC50 as the concentration that gives 50% inhibition.

With `CC(=O)Oc1ccccc1CCC(=O)OCC1NC(=S)NC(C)=C1C(=O)OCCc1cccc([N+](=O)[O-])c1` (stereo not drawn) [81″, 4-[3-(2-acetoxy-phenyl)-propionyloxymethyl]-6-methyl-2-thioxo-1,2,3,4-tetrahydro-pyrimidine-5-carboxylic acid 2-(3-nitro-phenyl)-ethyl ester], the half-maximal inhibitory concentration (IC50) was 6500 nM under setting [1] and 1000 to 10000 nM under setting [2]. For `CC1=C(C(=O)OCCc2c(F)cccc2F)C(CO)NC(=S)N1` (stereo not drawn) [39″, 4-hydroxymethyl-6-methyl-2-thioxo-1,2,3,4-tetrahydro-pyrimidine-5-carboxylic acid 2-(2,6-difluoro-phenyl)-ethyl ester], the IC50 under setting [1] was determined as 20000 nM and the IC50 under setting [2] is 10000 to 20000 nM. In the case of `CC1=C(C(=O)OCCc2cn(C)c3ccccc23)CNC(=S)N1` [Compound 165, 6-methyl-2-thioxo-1,2,3,4-tetrahydro-pyrimidine-5-carboxylic acid 2-(1-methyl-1H-indol-3-yl)-ethyl ester], the concentration for half-maximal inhibition (IC50) is 1400 nM under setting [1] and 1000 to 10000 nM under setting [2]. For `CC1=C(C(=O)OCCc2ccc(Cl)cc2)C(CO)NC(=S)N1` (stereo not drawn) [35″, 4-hydroxymethyl-6-methyl-2-thioxo-1,2,3,4-tetrahydro-pyrimidine-5-carboxylic acid 2-(4-chloro-phenyl)-ethyl ester], in that order: 1600 nM and 1000 to 10000 nM. Turning to `CC1=C(C(=O)OCc2ccc([N+](=O)[O-])cc2)CNC(=S)N1` [Compound 7, 6-methyl-2-thioxo-1,2,3,4-tetrahydro-pyrimidine-5-carboxylic acid 4-nitro-benzyl ester], the concentration for half-maximal inhibition (IC50) is 2500 nM under setting [1] and 1000 to 10000 nM under setting [2]. For `CC1=C(C(=O)OCc2ccc(C(F)(F)F)cc2)CNC(=S)N1` [Compound 114, 6-methyl-2-thioxo-1,2,3,4-tetrahydro-pyrimidine-5-carboxylic acid 4-trifluoromethyl-benzyl ester], in that order: < 400 nM and < 1000 nM.

Turning to `CCN(CC)c1ccc(CCOC(=O)C2=C(C)NC(=S)NC2CO)cc1[N+](=O)[O-]` (stereo not drawn) [91″, 4-Hydroxymethyl-6-methyl-2-thioxo-1,2,3,4-tetrahydro-pyrimidine-5-carboxylic acid 2-(4-diethylamino-3-nitro-phenyl)-ethyl ester], the IC50 runs as follows: under setting [1], 700 nM; under setting [2], < 1000 nM. For `CC1=C(C(=O)OCc2ccc(-c3cccs3)s2)CNC(=S)N1` [Compound 218, 6-methyl-2-thioxo-1,2,3,4-tetrahydro-pyrimidine-5-carboxylic acid[2,2′]bithiophenyl-5-ylmethyl ester], under setting [3], the IC50 was < 400 nM. Regarding `CC1=C(C(=O)OCCCc2cccc3ccccc23)C(CO)NC(=S)N1` (stereo not drawn) [24″, 4-hydroxymethyl-6-methyl-2-thioxo-1,2,3,4-tetrahydro-pyrimidine-5-carboxylic acid 3-naphthalen-1-yl-propyl ester], the 50% inhibitory concentration (IC50) runs as follows: under setting [1], 800 nM; under setting [2], < 1000 nM. Regarding `CC1=C(C(=O)OCCc2ccc(F)cc2)CNC(=S)N1` [Compound 93, 6-methyl-2-thioxo-1,2,3,4-tetrahydro-pyrimidine-5-carboxylic acid 2-(4-fluoro-phenyl)-ethyl ester], the 50% inhibitory concentration (IC50) under setting [3] turned out to be 700 nM.

In the case of `CC1=C(C(=O)OCCc2ccccc2C)CNC(=S)N1` [Compound 133, 6-methyl-2-thioxo-1,2,3,4-tetrahydro-pyrimidine-5-carboxylic acid 2-o-tolyl-ethyl ester], the IC50 was < 400 nM under setting [1] and < 1000 nM under setting [2]. As to `CC1=C(C(=O)OCc2cc(Cl)cc(Cl)c2)C(COS(C)(=O)=O)NC(=S)N1` (stereo not drawn) [50″, 4-methanesulfonyloxymethyl-6-methyl-2-thioxo-1,2,3,4-tetrahydro-pyrimidine-5-carboxylic acid 3,5-dichloro-benzyl ester], the IC50 is 68000 nM under setting [1] and > 20000 nM under setting [2].

As to `CC1=C(C(=O)OCCc2csc([N+](=O)[O-])c2)CNC(=S)N1` [26′, 6-methyl-2-thioxo-1,2,3,4-tetrahydro-pyrimidine-5-carboxylic acid 2-(5-nitro-thiophen-3-yl)-ethyl ester], the IC50 by setting is: under setting [1], 900 nM; under setting [2], < 1000 nM.
